Tests used:
[1] = Hepatoprotective activity in human HL-7702 cells assessed as inhibition of D-galactosamine-induced toxicity at 1x10'-5 M by MTT assay relative to control; format: functional; conditions: L02
L02 = assay: Hepatoprotective activity against D-galactosamine-induced toxicity in human HL-7702 cells assessed as survival rate at 1x10'-5 M by MTT assay relative to normal cell; format: functional; conditions: read-out: Survival

| SMILES | inhibition at 10 µM [1] [%] | viability at 10 µM (L02) [%] |
| --- | --- | --- |
| COc1ccc(C(=O)C(=O)c2ccc(O[C@@H]3O[C@H](CO[C@@H]4OC[C@@H](O)[C@H](O)[C@H]4O)[C@@H](O)[C@H](O)[C@H]3O)cc2O)cc1O | 27.1 | 61.3 |
| COc1ccc(C(=O)C(=O)c2ccc(O[C@@H]3O[C@H](CO[C@@H]4OC[C@](O)(CO)[C@H]4O)[C@@H](O)[C@H](O)[C@H]3O)cc2O)cc1O | 52.4 | 74.7 |
| COc1ccc(-c2coc3cc(O[C@@H]4O[C@H](CO[C@@H]5OC[C@](O)(CO)[C@H]5O)[C@@H](O)[C@H](O)[C@H]4O)ccc3c2=O)cc1O | 36.6 | 66.3 |
| COc1cc(-c2coc3cc(O[C@@H]4O[C@H](CO[C@@H]5OC[C@@H](O)[C@H](O)[C@H]5O)[C@@H](O)[C@H](O)[C@H]4O)ccc3c2=O)ccc1O | 45.8 | 71.2 |
| COc1ccc(-c2coc3cc(O[C@@H]4O[C@H](CO[C@@H]5OC[C@@H](O)[C@H](O)[C@H]5O)[C@@H](O)[C@H](O)[C@H]4O)ccc3c2=O)cc1O | 46.3 | 71.5 |
| COC(=O)c1cc(OC)c2c(c1-c1c(CO)cc(OC)c3c1OCO3)OCO2 [BICYCLOL] | 29.4 | 62.5 |

Source: ChEMBL document CHEMBL3091380, “Dibenzoyl and isoflavonoid glycosides from Sophora flavescens: inhibition of the cytotoxic effect of D-galactosamine on human hepatocyte HL-7702” (2013)
